PMC2904801, “A Metazoan/Plant-like Capping Enzyme and Cap Modified Nucleotides in the Unicellular Eukaryote Trichomonas vaginalis” (PLoS Pathogens, 2010)

Biological target: T1, TvCE (Trichomonas vaginalis, UniProt A2DUZ5)
T1 construct: gene TVAG_187730; full-length (561 residues, 69 kDa without tag), N-terminal His tag from pET200D, E. coli BL21, ~71 kDa monomer
T1 sequence (A2DUZ5 1-561): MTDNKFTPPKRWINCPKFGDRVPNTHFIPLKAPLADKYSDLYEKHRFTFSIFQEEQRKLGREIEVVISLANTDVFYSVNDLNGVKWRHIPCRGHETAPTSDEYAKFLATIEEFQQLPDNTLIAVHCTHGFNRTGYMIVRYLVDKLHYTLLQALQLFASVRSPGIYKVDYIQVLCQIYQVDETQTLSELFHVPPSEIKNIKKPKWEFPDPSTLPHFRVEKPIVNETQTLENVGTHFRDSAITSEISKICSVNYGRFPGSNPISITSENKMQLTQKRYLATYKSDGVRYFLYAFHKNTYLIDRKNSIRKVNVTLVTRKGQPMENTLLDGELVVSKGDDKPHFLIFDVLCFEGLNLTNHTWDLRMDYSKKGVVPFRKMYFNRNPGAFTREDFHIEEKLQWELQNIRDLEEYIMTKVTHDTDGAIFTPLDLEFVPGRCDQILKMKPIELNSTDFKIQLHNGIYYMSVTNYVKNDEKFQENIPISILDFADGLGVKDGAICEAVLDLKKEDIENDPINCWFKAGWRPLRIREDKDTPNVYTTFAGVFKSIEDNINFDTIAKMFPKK
Test: SDS-PAGE autoradiography of covalent enzyme-GMP intermediate; cold NTP competition
Type: biochemical
Conditions: guanylyltransferase domain; labelled compound; covalent enzyme-(lysyl-N)-GMP; 50 mM Tris-acetate pH 7.0, 5 mM DTT, 2.5 mM MgCl2, 37 °C

## Nc1nc2c(ncn2[C@@H]2O[C@H](COP(=O)(O)OP(=O)(O)OP(=O)(O)O)[C@@H](O)[C@H]2O)c(=O)[nH]1 [[α-^32P]GTP]
  SDS-PAGE autoradiography of covalent enzyme-GMP intermediate; cold NTP competiti: displayed an absolute specificity for a GTP substrate
